Test results taken from patent US8173618B2, “Formulations for reducing neuronal degeneration” (University of Massachusetts, priority 2003, dated 2012).
Entries after “also recorded” stand apart in the source; their conditions may differ.

Assays:
SH-SY-5Y cells [1] = assay: Homocysteine-induced apoptosis, meracyanine staining of externalized PS; format: cell-based, human
Protocol: FIG. 20 is a bar graph that depicts the results of experiments in which […] were treated with 250 μM homocysteine with or without 100 μM SAM, after which cultures were monitored for externalized PS via meracyanine staining as an indication of apoptosis. Values represent the mean (±standard error of the mean) in arbitrary densitometric units derived from densitometric analyses of 10-50 neurons from two cultures under each condition from two separate independent experiments.
(§1) Levels of externalized phosphatidylserine (PS) were used as a measure of apoptosis (Rimon et al., 1997, J. Neurosci. Res., 48:563-570). Briefly, cultures were subjected to treatments then rinsed with PBS and incubated with 10 μl/ml merocyanine (Upstate Biotech, Lake Placid, N.Y.), followed by examination under rhodamine optics (Ekinci et al, 1999, J. Biol. Chem., 274:30322-30327).
Homocysteine induces apoptosis in cultured cells. To investigate the effect of SAM on HC-induced apoptosis, 100 μM SAM and homocysteine were added to cultured SH-SY-5Y cells and apoptosis was monitored by meracyanine staining to detect the externalization of PS.

cortical neurons = assay: Intracellular ROS by DCFD fluorescence in cortical neurons; format: cell-based, mice; conditions: folate-deficient medium two hours, 0.15 mg/ml vitamin E as alpha-tocopherol
Protocol: Intracellular reactive oxygen species (ROS) were monitored as described in […] et al., 1999 (J. Biol. Chem., 274:30322-30327). Briefly, cells were incubated for 30 minutes with dichloro-fluorescein diacetate (DCFD; acetoxymethyl ester; Molecular Probes, Inc., Eugene, Oreg.), which is used to detect intracellular peroxide levels. Incubation was followed by rinsing of cultures in serum-free medium and immediate capture of images using UV optics. Images were captured under epifluorescent and phase-contrast illumination using a DAGE CCL-72 cooled CCD camera via a Scion LG-3 frame grabber operated by NIH Image (see the Internet at rsb.info.nih.gov/nih-image). Images were then stored as PICT files on a Macintosh Power PC 7100AV for subsequent analysis. At least 100 cells in randomly-selected fields from duplicate cultures derived from multiple experiments were scored for fluorescent intensity using NIH Image analysis software. Representative background areas devoid of cells were similarly analyzed and subtracted from cell values to yield net densitometric values. All fields for each individual assay were illuminated, captured, and processed under identical settings. Corresponding phase-contrast images were obtained. Cell aggregates were excluded from the assays; only individual cells were quantified. Values were exported to Excel for statistical analyses using Student's t test. […]

[2] = test system: differentiated SH-SY-5Y cells; assay: Intracellular ROS by DCFD fluorescence in differentiated SH-SY-5Y cells; format: cell-based, human; conditions: for ROS: single agent, control cells and cells exposed to Abeta; for increase in ROS: 20 μM Abeta25-35 two hours; for increase in ROS resulting from folate deprivation: simultaneously with folate deprivation
Protocol: Cultured cells were used to test individual agents and formulations. In general, SH-SY-5Y human neuroblastoma cells were cultured in DMEM (Cellgro) containing 10% fetal bovine serum in 5% CO2.
For treatments with Abeta, differentiated cultures were transferred to medium without serum and treated for two hours with 20 μM Abeta25-35 (Sigma Chemical Co., St. Louis, Mo.). […] Louis, Mo.). In experiments calling for treatment of cell cultures with N-acetyl cysteine (NAC; NALC), cultures were treated with 10 mM NAC (Sigma Chemical Co., St. Louis, Mo.) after the culture was grown for two hours in serum-free medium.
Intracellular reactive oxygen species (ROS) were monitored as described in Ekinci et al., 1999 (J. Biol. Chem., 274:30322-30327). Briefly, cells were incubated for 30 minutes with dichloro-fluorescein diacetate (DCFD; acetoxymethyl ester; Molecular Probes, Inc., Eugene, Oreg.), which is used to detect intracellular peroxide levels. Incubation was followed by rinsing of cultures in serum-free medium and immediate capture of images using UV optics. Images were captured under epifluorescent and phase-contrast illumination using a DAGE CCL-72 cooled CCD camera via a Scion LG-3 frame grabber operated by NIH Image (see the Internet at rsb.info.nih.gov/nih-image). Images were then stored as PICT files on a Macintosh Power PC 7100AV for subsequent analysis. At least 100 cells in randomly-selected fields from duplicate cultures derived from multiple experiments were scored for fluorescent intensity using NIH Image analysis software. Representative background areas devoid of cells were similarly analyzed and subtracted from cell values to yield net densitometric values. All fields for each individual assay were illuminated, captured, and processed under identical settings. Corresponding phase-contrast images were obtained. Cell aggregates were excluded from the assays; only individual cells were quantified. Values were exported to Excel for statistical analyses using Student's t test.
For monitoring of intracellular peroxide concentrations as an index of ROS, cultures received 10 μl/ml DFCD (2′7′-dichlorofluorescein diacetate; Kodak) for 20 minutes. Cultures were then visualized under fluorescein UV optics (perikaryon; Ekinci and Shea, 1999, supra).

normal and ApoE−/− mice = assay: TBAR analysis of brain oxidative damage in mice on dietary regimens; format: in vivo; conditions: deficiency in vitamin E alone
From the text: Damage resulting from the generation of intracellular reactive oxygen species can also be quantified using a TBAR assay (Ohkawa et al., Anal. Biochem., 95:351-358, 1979). This method is used to determine cellular lipid hydroperoxides in cultured cells by thiobarbituric acid reaction. Lipid hydroperoxides break down to malondialdehyde and other aldehydes. These react with thiobarbituric acid in a mildly acidic environment, which results in formation of a chromophore. The resulting chromophore is measured by light absorption or fluorescence techniques.
After one month, total brain tissue was harvested and subjected to TBAR analyses as described in Wittaker et al. (1996, supra).
Additional mice received the deficient diet supplemented with DZA (0.4 g/kg total diet weight), SAM (80 mg/kg diet weight) and NAC (1 g/kg diet weight). Total brain tissue was harvested and analyzed for TBARs.

[3] = test system: differentiated SH-SY-5Y cells; assay: ATP levels in Abeta-treated SH-SY-5Y cells; format: cell-based, human
Protocol: FIG. 11 is a bar graph showing the results of experiments examining apoptosis in which differentiated SH-SY-5Y cells cultured in the presence or absence of Abeta, with or without ALCAR for two hours, and assayed for ATP using spectrophotometric methods known in the art.
(§2) The effect of ALCAR on differentiated SH-SY-5Y cells treated with Abeta was examined. Cells were cultured in 20 μM Abeta in the presence and absence of ALCAR. Some cultures were pretreated with 50 μM ALCAR for 30 minutes. In these experiments, the ALCAR-containing medium was replaced with medium containing Abeta and no ALCAR then incubated for two hours before being assayed. Cultures were assayed for ROS, apoptosis, and ATP.

[4] = test system: differentiated SH-SY-5Y cells; assay: Externalized phosphatidylserine (meracyanine fluorescence) as index of apoptosis in SH-SY-5Y cells; format: cell-based, human; conditions: co-treatment with 50 μM ALCAR, 20 μM Abeta
Protocol: as §1
The question of whether folate deficiency is associated with apoptosis was investigated. […] Overall detachment, a further sign of cell death, was evident by the seventh day in the serum-deprived cultures. The detachment phenomenon precluded longer experiments.
as §2

SH-SY-5Y cells [5] = assay: HPLC of homocysteine in SH-SY-5Y cell lysates and medium; format: cell-based, human; conditions: 25 μM DZA during folate deprivation
Protocol: (§3) Glutathione levels were quantified in homogenates of SH-SY-5Y cells. Cultures were rinsed twice with Tris-buffered saline (TBS), scraped from the plate in a small volume of TBS and homogenized on ice. Medium was also utilized for analysis of HCY along with cellular lysates, since HCY is normally exported from cells. Homogenates (100 μl) were reduced by mixing with 50 μl of 100 μM N-acetylcysteine or with 30 μl of 30 μM cystamine (as an internal standard) and 10 μl of tri-carboxyethylphosphine (100 mg/ml in 0.05 M HCl). Samples were vortexed, incubated at room temperature for 30 minutes, then centrifuged at 10,000×g for 10 minutes. 80 μl of the resulting supernatant were combined with 160 μl of 2 M boric acid/4 mM EDTA (pH 10.5), followed by 80 μl of 1.0 mg/ml SBDF [7-fluorobenzo-2-oxa-1,3-diazole-4-sulfonate] in boric acid/EDTA buffer). Samples were mixed, incubated for 60 minutes at 60° C., equilibrated to reach temperature, and 50 μl of the sample was then injected into a Hewlett Packard model 1090 HPLC, which is used with a 1046A fluorescence detector and a Hewlett Packard 4.6×60 mm high-speed analytical column packed with 3 μM ODs (C18) Hypersil silica. The mobile phase consisted of methanol/0.2 M acetate buffer pH 4.0 (2/98 by volume). Glutathione concentrations were then determined by comparison of peak area ratios of glutathione to the internal standard N-acetylcysteine in the sample compared to peak areas obtained for a glutathione standard curve. Samples were derived from 3-4 normal and 3-4 ApoE−/− mice for each dietary condition, from ≧2 independent experiments (total n≧6 for each diet for both experiments).
Medium was then decanted, cells were scraped from the plate and homogenized, and medium and cellular lysates, along with an aliquot of fresh medium that had not been in contact with cells, were subjected to HPLC analyses.

[6] = reported; cited from earlier work
SH-SY-5Y cells [7] = assay: HPLC analysis of glutathione and thiols in SH-SY-5Y cells; format: cell-based, human; conditions: NAC treatment in the absence of folate
Protocol: as §3
NAC directly scavenges ROS and also provide a source of intracellular cysteine for synthesis of glutathione during conditions of oxidative stress. […] Differentiated SH-SY-5Y cells with and without NAC treatment were subjected to HPLC along with 50 μM each of multiple thiol standards (“Standards”) as indicated in FIGS. 18A to 18C.

[8] = no folate + 25 μM DZA, two hours

N[C@@H](CCS)C(=O)O [Homocysteine, homocysteine]
externalization of PS (SH-SY-5Y cells [1]; homocysteine, 2 and 24 hours): progressively induced externalization of PS

Cc1c(C)c2c(c(C)c1O)CC[C@@](C)(CCC[C@H](C)CCC[C@H](C)CCCC(C)C)O2 [vitamin E, alpha-tocopherol]
ROS generation during folate deprivation (cortical neurons): not prevented | ROS induction by Abeta ([2]; additional experiments, vitamin E): prevented | ROS ([2]; two hours): reduced ROS | ROS induced by Abeta ([2]; vitamin E (0.15 ng/mL) applied 15 minutes after Abeta): efficacy of vitamin E was markedly reduced; also recorded: but not vitamin E, quenched ROS | ROS induced by Abeta ([2]; vitamin E (0.15 ng/mL) provided simultaneously with Abeta, two hours): approximately identical to that of control cells | ROS in brain (TBAR) (normal and ApoE−/− mice; ApoE−/− knockout mice): did increase ROS | ROS in brain (TBAR) (normal and ApoE−/− mice; iron-fed normal mice): did not increase ROS

CC(=O)O[C@H](CC(=O)[O-])C[N+](C)(C)C [ALCAR, acetyl-L-carnitine]
Abeta-induced reduction in ATP levels ([3]; co-treatment and prior treatment with 50 μM ALCAR): prevented this reduction in ATP levels | effect of Abeta on apoptosis [4]: reduced | effect of Abeta on ROS generation ([2]; co-treatment with 50 μM ALCAR, 20 μM Abeta): reduced the effect of Abeta on ROS generation | Abeta neurotoxicity (ROS, apoptosis) ([2]; pretreatment with 50 μM ALCAR for 30 minutes, followed by its removal): effective at preventing Abeta neurotoxicity | ROS ([2]; two hours): reduced ROS

Abeta: beta-amyloid fragment of the amyloid precursor protein; Abeta25-35 (Sigma) used at 20 μM (GSNKGAIIGLM; Amyloid-beta protein 42; UniProt P05067 696-706, looked up, fragment)
cellular ATP ([3]; 20 μM Abeta): reduced cellular ATP | increase in ROS ([2]; folate-deprived cells): 144±10% | increase in ROS ([2]; in the presence of folate): 34±4%

Nc1nccc2c1ncn2[C@@H]1O[C@H](CO)[C@@H](O)[C@H]1O [DZA, 3-deazaadenosine]
attenuation of the increase in ROS from folate deprivation ([2]; 25 μM DZA during folate deprivation): approximately 50% | attenuation of the increase in ROS from folate deprivation ([2]; 25 μM DZA simultaneously with folate deprivation): attenuated the increase in ROS by slightly more than half | ROS % increase vs. control [2, 8]: 16% | ROS Mean ± SEM [2, 8]: 8.8 ± 0.3 | HCY formation and export (SH-SY-5Y cells [5]): prevented HCY formation and export to a level below that observed in cultures receiving folate

C[S+](CC[C@H](N)C(=O)O)C[C@H]1O[C@@H](n2cnc3c(N)ncnc32)[C@H](O)[C@@H]1O (stereo partly shown) [SAM, S-adenosyl methionine]
homocysteine-induced PS externalization (SH-SY-5Y cells [1]; 100 μM SAM, 2 hours): prevented PS externalization | reduction of homocysteine-induced PS externalization (SH-SY-5Y cells [1]; 100 μM SAM, 24 hours): approximately 50% | entry into the CNS [6]: reported to enter or have effects in the CNS | increase in ROS generated by folate deprivation ([2]; 100 μM SAM, two hours): attenuation of the increase in ROS; also recorded: reduced ROS levels to a greater extent than did incubation of cells in the presence of folate

CC(=O)N[C@@H](CS)C(=O)O [NAC, N-acetyl cysteine]
intracellular cysteine (HPLC) (SH-SY-5Y cells [7]): marked increase | intracellular glutathione (HPLC) (SH-SY-5Y cells [7]): marked increase | entry into the CNS [6]: reported to enter or have effects in the CNS | increase in ROS resulting from folate deprivation ([2]; 1 mM NAC, two hours): prevented the increase in ROS | increase in ROS resulting from folate deprivation ([2]; 10 mM NAC, two hours): prevented the increase in ROS | ROS induced by Abeta ([2]; NAC (10 mM) applied 15 minutes after Abeta): quenched ROS
